Patent publication US6346402B1, “(S)-α-phenethylamine: pyruvate transaminase” (Kaneka Corporation, priority 1998, dated 2002)
“Also recorded” adds a separate entry of the source.

How the values were obtained:
[1] = tested on: (S)-α-phenethylamine:pyruvate transaminase; experiment: Substrate specificity for amino group receptors (acetophenone quantified by HPLC); format: biochemical, Pseudomonas sp. KNK425
Protocol: The mixture was reacted at 30° C. for 1 hour. The resulting reaction mixture was analyzed by high-performance liquid chromatography, to quantify acetophenone.
(§1) The assay conditions by high-performance liquid chromatography are as follows.

[2] = tested on: (S)-α-phenethylamine:pyruvate transaminase; experiment: Substrate specificity for amino group donors (dabsylated alanine quantified by HPLC); format: biochemical, Pseudomonas sp. KNK425; settings: for Relative Activity (%): substance as amino group donor, 22.5 mM, 22.5 mM pyruvic acid, pH 7.0, 30° C., 1 hour, (S)-phenethylamine = 100, Table 2
Protocol: The mixture was reacted at 30° C. for 1 hour, and thereafter immersed in boiling water for 5 minutes, to stop the reaction. The reaction mixture obtained after termination of reaction was diluted five times with 0.2M sodium carbonate buffer, and 0.2 mL of a 10 mM acetone solution of dabsyl chloride was added to 0.1 mL portion of the resulting dilution. The reaction mixture was reacted at 70° C. for 15 minutes, and after cooling, 0.1 mL of 1 N HCl was added. This reaction mixture was analyzed by high-performance liquid chromatography to quantify dabsylated alanine.
as §1
The results thereof, expressed in terms of the relative activity where an activity when using (S)-phenethylamine as an amino group donor is 100, are shown in Table 2.

[3] = tested on: (S)-α-phenethylamine:pyruvate transaminase; experiment: as above; format: biochemical, Pseudomonas sp. KNK425; settings: substance as amino group donor; for Relative Activity (%) of (S)-α-Phenethylamine:Pyruvate Transaminase [Present Invention]: Table 4; for Relative Activity (%): Table 1
[4] = tested on: ω-amino acid:pyruvate transaminase; settings: substance as amino group donor; amino group receptor pyruvic acid; Table 4; cited from earlier work
[5] = tested on: 4-aminobutyrate:2-ketoglutarate transaminase; settings: substance as amino group donor; amino group receptor 2-ketoglutaric acid; Table 4; cited from earlier work
[6] = substance as amino group receptor, 22.5 mM, donor 22.5 mM (S)-α-phenethylamine, pH 7.0, 30° C., 1 hour, pyruvic acid = 100, Table 3
[7] = ketone compound as amino group receptor, donor (S)-α-phenethylamine, same manner as Example 5, Table 5
[8] = compound as amino group receptor, donor (S)-α-phenethylamine, same manner as Example 5, Table 6
[9] = amino group receptor pyruvic acid
[10] = amino group receptor 2-ketoglutaric acid

With `CCCC(=O)C(=O)O` [2-Keto-valeric acid] the “Relative Activity (%)” value [1, 6] was 1.5%.
For `CC(=O)c1cccc(O)c1` [3′-Hydroxyacetophenone], the “Relative Activity (%)” value [1, 7] was 6%.
With `CCCCCN` [Amylamine] the “Relative Activity (%)” value [2] was 5%.
In the case of `NC1CCCCC1` [Cyclohexylamine], the “Relative Activity (%)” value [2] was 1%.
For `CC(=O)Cc1cccc(C(F)(F)F)c1` [3′-Trifluoromethylphenyl acetone], the “Relative Activity (%)” value [1, 7] was 60%.
In the case of `COc1ccc(CC(C)N)cc1OC` (stereo not shown) [1-(3,4-Dimethoxyphenyl)-2-aminopropane], the “Relative Activity (%)” value [2] was 18%.
With `CC(=O)c1ccccn1` [2-Acetylpyridine] the “Relative Activity (%)” value [1, 7] was 42%.
For `CC(=O)c1cnccn1` [Acetylpyrazine], the “Relative Activity (%)” value [1, 7] was 100%.
In the case of `COCC(C)=O` [Methoxypropanone], the “Relative Activity (%)” value [1, 8] was 5%.
In the case of `CCCCCC(C)N` (stereo not shown) [2-Heptylamine], the “Relative Activity (%)” value [2] was 28%.
With `CC(C)N` [Isopropylamine] the “Relative Activity (%)” value [2] was 0%.
In the case of `CC(=O)c1ccncc1` [4-Acetylpyridine], the “Relative Activity (%)” value [1, 7] was 8%.
For `NCCS(=O)(=O)O` [Taurine], the “Relative Activity (%) of (S)-α-Phenethylamine:Pyruvate Transaminase [Present Invention]” value (from here on “Relative Activity (%) … [Present Invention]”) [3, 9] is given as 0%, the “Activity of the enzyme to the substance as amino group donor (in words)” value (“Activity … as amino group donor (in words)” below) [2] is given as “does not act; also recorded: not exhibiting activity” and the “Relative Activity (%) of ω-Amino acid:Pyruvate Transaminase [Derived from Pseudomonas F-126]” value [4] is given as 132%.
With `CC(=O)c1ccccc1O` [2′-Hydroxyacetophenone] the “Relative Activity (%)” value [1, 7] was 24%.
In the case of `O=CC(=O)O` [Glyoxylic acid], the “Activity of the enzyme to the substance as amino group receptor (in words)” value (from here on “Activity … as amino group receptor (in words)”) [1] was “high activity; also recorded: exhibiting activity; also recorded: exhibits activity” and the “Relative Activity (%)” value [1, 6] was 100%.
For `COc1cccc(C(C)=O)c1` [3′-Methoxyacetophenone], the “Relative Activity (%)” value [1, 7] was 4%.
With `CC(=O)CC(=O)c1ccccc1` [Benzoyl acetone] the “Relative Activity (%)” value [1, 7] was 12%.
With `NC(CCC(=O)O)C(=O)O` (racemic) [DL-Glutamic Acid] the “Relative Activity (%)” value [3, 9] was 0% and the “Activity … as amino group donor (in words)” value [2] was “does not act”.
With `C[C@H](N)c1ccccc1` [(S)-α-Phenethylamine] the “Relative Activity (%)” value [3, 9] was 100%, the “Relative Activity (%) … [Present Invention]” value [3, 9] was 100% and the “Activity … as amino group donor (in words)” value [2] was “especially high activity; also recorded: specifically high activity; also recorded: exhibiting activity; also recorded: exhibits high activity”. For the same compound, the “Relative Activity (%)” value [2] was 100%.
In the case of `CCCCN` [n-Butylamine], the “Relative Activity (%)” value [2] was 2%.
With `C[C@@H](N)c1ccccc1` [(R)-α-Phenethylamine] the “Relative Activity (%)” value [2] was 3%.
With `N[C@@H](CC(=O)O)C(=O)O` [L-Aspartic Acid] the “Relative Activity (%)” value [3, 9] was 0% and the “Activity … as amino group donor (in words)” value [2] was “does not act”.
With `CCCCCCC(C)N` (stereo not shown) [2-Octylamine] the “Relative Activity (%)” value [2] was 46%.
With `CC(N)CCc1ccccc1` (stereo not shown) [1-Phenyl-3-aminobutane] the “Relative Activity (%)” value [2] was 80%.
In the case of `NCC(=O)O` [Glycine], the “Relative Activity (%)” value [3, 9] was 0% and the “Activity … as amino group donor (in words)” value [2] was “does not act”.
For `CCCC(C)N` (stereo not shown) [2-Pentylamine], the “Relative Activity (%)” value [2] was 4%.
In the case of `NCCCCN` [Putrescine], the “Relative Activity (%) … [Present Invention]” value [3, 10] was 0%, the “Relative Activity (%) … [Present Invention]” value [3, 9] was 0% and the “Activity … as amino group donor (in words)” value [2] was “does not act; also recorded: not exhibiting activity”. The “Relative Activity (%) of 4-Aminobutyrate:2-ketoglutarate Transaminase [Derived from Pseudomonas F-126]” value [5] was 8% and the “Relative Activity (%) of ω-Amino acid:Pyruvate Transaminase [Derived from Pseudomonas F-126]” value [4] was 18%.
With `Cl.N` [Ammonium Chloride] the “Relative Activity (%)” value [3, 9] was 0% and the “Activity … as amino group donor (in words)” value [2] was “does not also act”.
For `NCCCc1ccccc1` [3-Phenylpropylamine], the “Relative Activity (%)” value [2] was 1%.
For `COc1ccc(CC(C)=O)cc1` [4′-Methoxyphenyl acetone], the “Relative Activity (%)” value [1, 7] was 12%.
In the case of `O=C(O)CCC(=O)C(=O)O` [2-Ketoglutaric acid], the “Activity … as amino group receptor (in words)” value [1] was “did not exhibit an activity; also recorded: does not act” and the “Relative Activity (%)” value [1, 6] was 0%.
With `CC(=O)C(=O)O` [Pyruvic acid] the “Activity … as amino group receptor (in words)” value [1] was “high activity; also recorded: exhibiting activity; also recorded: exhibits activity”, the “Relative Activity (%)” value [1, 8] was 100% and the “Relative Activity (%)” value [1, 6] was 100%.
In the case of `NCCCC(=O)O` [4-Aminobutyric acid], the “Relative Activity (%) … [Present Invention]” value [3, 10] is listed as 0%, the “Activity … as amino group donor (in words)” value [2] is listed as “does not act” and the “Relative Activity (%) of 4-Aminobutyrate:2-ketoglutarate Transaminase [Derived from Pseudomonas F-126]” value [5] is listed as 100%.
With `O=CCc1ccccc1` [Phenylacetaldehyde] the “Relative Activity (%)” value [1, 8] was 37%.
In the case of `O=CCCc1ccccc1` [3-Phenylpropionaldehyde], the “Relative Activity (%)” value [1, 8] was 16%.
For `NCCC(=O)O` [β-Alanine], the “Relative Activity (%) … [Present Invention]” value [3, 10] was 0%, the “Relative Activity (%) … [Present Invention]” value [3, 9] was 0% and the “Activity … as amino group donor (in words)” value [2] was “does not act; also recorded: not exhibiting activity”. For the same compound, the “Relative Activity (%) of 4-Aminobutyrate:2-ketoglutarate Transaminase [Derived from Pseudomonas F-126]” value [5] was 0% and the “Relative Activity (%) of ω-Amino acid:Pyruvate Transaminase [Derived from Pseudomonas F-126]” value [4] was 100%.
In the case of `CC(=O)CCc1ccccc1` [Benzyl acetone], the “Relative Activity (%)” value [1, 7] was 70%.
For `NCc1ccccc1` [Benzylamine], the “Relative Activity (%)” value [2] was 13%.
In the case of `CC(=O)c1ccco1` [2-Acetylfuran], the “Relative Activity (%)” value [1, 7] was 3%.
In the case of `CC(=O)c1nccs1` [2-Acetylthiazole], the “Relative Activity (%)” value [1, 7] was 4%.
For `CCC(C)N` (stereo not shown) [2-Butylamine], the “Relative Activity (%)” value [2] was 1%.
For `COc1ccc(CCC(C)=O)cc1` [4-(4′-Methoxyphenyl)-2-butanone], the “Relative Activity (%)” value [1, 7] was 35%.
In the case of `NCCCCC(N)C(=O)O` (racemic) [DL-Lysine], the “Relative Activity (%)” value [3, 9] was 0% and the “Activity … as amino group donor (in words)” value [2] was “not exhibiting activity; also recorded: does not act”.
In the case of `CCC(=O)Cc1ccccc1` [1-Phenyl-2-butanone], the “Relative Activity (%)” value [1, 7] was 5%.
For `CC(=O)c1ccc(Cl)cc1` [4′-Chloroacetophenone], the “Relative Activity (%)” value [1, 7] was 22%.
For `CCCN` [n-Propylamine], the “Relative Activity (%)” value [2] was 0%.
With `CCC(=O)C(=O)O` [2-Ketobutyric acid] the “Relative Activity (%)” value [1, 6] was 5.8%.
With `NCCc1ccccc1` [β-Phenethylamine] the “Relative Activity (%)” value [2] was 23%.
With `CC(N)c1cccc(O)c1` (stereo not drawn) [3′-Hydroxy-α-phenethylamine] the “Relative Activity (%)” value [2] was 52%.
In the case of `COc1ccc(CC(C)=O)cc1OC` [3′,4′-Dimethoxyphenyl acetone], the “Relative Activity (%)” value [1, 7] was 38%.
With `CC(=O)c1cccnc1` [3-Acetylpyridine] the “Relative Activity (%)” value [1, 7] was 14%.
In the case of `CC(=O)COc1ccccc1` [Phenoxy-2-propanone], the “Relative Activity (%)” value [1, 8] was 46%.
